From US9085761B1, “Methods and compositions for amplification of nucleic acids” (Affymetrix, Inc., priority 2012, dated 2015)
One block for each compound: values may come before it.

Key:
Taq DNA Polymerase = target: T1, Taq DNA Polymerase (Thermus aquaticus, UniProt P19821); experiment: PCR amplification of a 455 bp human numb target with Taq DNA Polymerase in the presence of surfactant, product seen on agarose gel; type: biochemical; conditions: for PCR product of the expected size: FIG. 1, diluted Taq with 0.00011% Tween-20 and NP-40 carry-over; for Function: Table 1 summary: surfactants or blocked co-polymers that worked in the assay used and those that did not
T1 construct: made in house
Procedure: In order to test the efficacy of detergents on Taq DNA Polymerase, a stock of Taq DNA Polymerase at a base concentration of 111 units/ul was diluted to 5 units/ul in a storage buffer that lacked detergents. The standard Taq DNA Polymerase storage buffer has 0.5% Tween-20 and 0.5% NP-40. In this example 0.625 units of Taq were added per 25 ul reaction, so that represents a change in final detergent concentration of 0.0025% each detergent to 0.00011% of each. A 455 bp single-copy target from the human numb gene was PCR-amplified from 1 ng human genomic DNA in a 25 ul reaction with 0.625 units of the diluted Taq DNA polymerase. The cycling conditions were 95° C. for 2 minutes; 35 cycles of 95° C. for 10 seconds, 55° C. for 20 seconds, and 72° C. for 30 seconds; 72° C. for 5 minutes; and 10° C. until required. An aliquot of 10 ul was run on a 1.5% agarose/ethidium bromide gel.
In FIG. 1, the results of the initial screen of several non-ionic and zwitterionic detergents are shown. In this example there is residual Tween-20 and NP-40 in the enzyme storage buffer. The concentrations of surfactants listed are the final concentration of that surfactant in the assay. All conditions in the example, including the “no detergent” condition, have 0.00011% Tween-20 and 0.00011% NP-40 resulting from carry-over from the enzyme storage buffer. […] As expected Tween-20 and NP-40 worked when present at 0.01% and 0.1%. […] A0-12-2 worked at 0.01% and PEO(10)SAP worked at 0.01, 0.1 and 1%. It is clear that in addition to the standard non-ionic detergents with PEOn, a zwitterionic or ylide with that polymer will also contribute to PCR product generation.
Because a small amount of Tween-20 and NP-40 was carried over in the previous experiment, Taq DNA Polymerase was purified without the addition of detergents after the lysis step to provide a “detergent-free” Taq for use in the next example. The previous numb target and reaction conditions were used with 0.625 units of Taq per reaction.
To further test the effectiveness of PEOn-derivatives, the denaturation temperature was changed from 95° C. to 98° C. in the cycling protocol. This increase in temperature adds additional stress to the function of Taq DNA Polymerase. A selection of PLURONIC® and TETRONIC® surfactants were tested (labels in the figures are abbreviated, for example, “T908” refers to TETRONIC® 908 and “P F87” refers to PLURONIC® F87). In addition, TETRONIC® 904 and 1107 were modified to amine-oxide, forms and then tested.

[1] = test system: thermostable DNA polymerase; experiment: Evaluation of protecting groups for reversible modification (hot-start inactivation) of thermostable polymerase; type: biochemical; conditions: reactivity tested in Tris pH 8 or Tricine pH 8.8
Procedure: Three classes of protecting groups were evaluated: 2,3-substituted maleic anhybrides, alpha-activated compounds that can undergo beta-elimination and molecules that can undergo intramolecular cyclic displacement or assisted elimination. The experimental compounds had the general structure:
Where Y could be N-hydroxysuccinimide (NHS), p-nitrophenol (pNP), or imidazole and X could be CONMe2, MeSO2, CN, NO2, CO2Me, (CH2)2SMe, N(CH3)CHO, or CH2C(O)CH3. The reactivity was tested in Tris pH 8 or Tricine pH 8.8. Buffer pH measurements are at room temperature (˜25° C.). […]

[2] = Cloud point of surfactant; type: physicochemical; conditions: about 1% detergent concentration in 6×SSPE buffer
Procedure: In some aspects surfactants are selected for use in the methods because they have a cloud point (temperature at which the solid begins to precipitate and give the fluid a cloudy appearance) greater than or equal to 80° C., greater than or equal to 90° C. and in particularly preferred aspects the cloud point is greater than about 100° C. (in each case when measured at about 1% aqueous). The cloud point is the temperature above which a surfactant solution separates into a detergent rich phase and a detergent poor phase (see, Rosen et al. Surfactants and interfacial Phenomena, ^3rd ed. 2004, Hoboken; John Wiley & Sons, Inc. and Neugebauer, J. M. Detergents: an overview, Methods Enzymol, 1990, 182, p. 239-53). The separation is visualized as turbidity within the solution. An increase in temperature favors micelle formation; the rapid growth of micelles along with intermicellar attraction likely results in the formation of large particles that can precipitate out of solution, thus causing turbidity. This phase separation is reversible upon cooling. […]
The amine oxide detergents of the present invention have higher cloud points than their non-amine oxide counterparts. For example, PEO(10)stearlyamine has a cloud point of 60° C. compared to PEO(10)stearylamine N-oxide's cloud point of greater than 100° C., in both cases when measured at about 1% detergent concentration in 6×SSPE buffer. […]

T1 sequence (P19821 whole entry): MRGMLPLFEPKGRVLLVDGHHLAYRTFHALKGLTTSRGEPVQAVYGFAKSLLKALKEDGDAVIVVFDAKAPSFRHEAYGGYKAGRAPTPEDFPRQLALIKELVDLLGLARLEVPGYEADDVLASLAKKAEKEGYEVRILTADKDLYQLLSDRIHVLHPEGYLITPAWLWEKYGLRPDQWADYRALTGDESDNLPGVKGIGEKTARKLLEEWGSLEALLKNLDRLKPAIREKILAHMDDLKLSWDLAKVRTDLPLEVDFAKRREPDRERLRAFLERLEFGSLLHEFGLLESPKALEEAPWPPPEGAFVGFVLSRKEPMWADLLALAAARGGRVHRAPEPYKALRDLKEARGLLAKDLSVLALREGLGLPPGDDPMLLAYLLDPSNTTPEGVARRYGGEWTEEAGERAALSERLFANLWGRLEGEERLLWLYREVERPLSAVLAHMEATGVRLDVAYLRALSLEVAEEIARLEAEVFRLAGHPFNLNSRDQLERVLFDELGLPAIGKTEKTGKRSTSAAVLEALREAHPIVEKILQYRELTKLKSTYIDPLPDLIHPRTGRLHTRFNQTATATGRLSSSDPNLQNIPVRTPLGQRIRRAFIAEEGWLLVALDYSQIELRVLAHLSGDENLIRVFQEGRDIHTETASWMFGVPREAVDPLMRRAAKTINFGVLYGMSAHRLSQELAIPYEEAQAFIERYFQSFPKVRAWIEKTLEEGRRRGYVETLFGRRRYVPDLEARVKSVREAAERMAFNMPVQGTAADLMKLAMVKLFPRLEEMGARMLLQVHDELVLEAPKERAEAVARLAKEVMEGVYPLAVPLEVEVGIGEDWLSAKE

Compound: CCCCCCCCCCCC[N+]([O-])(CCO)CCO [AO-12-2, N,N-Bis(2-hydroxyethyl)laurylamine N-Oxide]
PCR product of the expected size (Taq DNA Polymerase; 0.01% surfactant final): resulted in a product | PCR product of the expected size (Taq DNA Polymerase; 0.01% surfactant final, listed as A0-12-2): worked | PCR product of the expected size (Taq DNA Polymerase; 0.1% surfactant final): not | PCR product of the expected size (Taq DNA Polymerase; 1% surfactant final): not

Compound: Polyethoxylated/Polypropoxylated (isodecyloxypropyl)amine N-Oxide [AO-405]
PCR product of the expected size (Taq DNA Polymerase; concentration not given): no visible product

effectiveness as reversible modifier of polymerase [1]: most effective
Compound: CS(=O)(=O)CCOC(=O)Oc1ccc([N+](=O)[O-])cc1 [MSEC, 2-(Methylsulfonyl)ethyl 4-nitrophenyl carbonate]

Compound: Polyethoxylated (10) Stearylamine N-Oxide [PE0 (10) SAO]
PCR product of the expected size (Taq DNA Polymerase; 0.01% surfactant final): worked | PCR product of the expected size (Taq DNA Polymerase; 0.1% surfactant final): worked | PCR product of the expected size (Taq DNA Polymerase; 1% surfactant final): worked | Function (Taq DNA Polymerase): YES | PCR product (Taq DNA Polymerase; detergent-free Taq DNA Polymerase, FIG. 2, 3, 4): PCR product was observed | cloud point [2]: greater than 100 °C

Compound: PEO(10) Stearyl (3-sulfo-propyl)-ammonium [PEO(10) SAPS]
Function (Taq DNA Polymerase): YES

Compound: NP 40 [reference compound]
PCR product of the expected size (Taq DNA Polymerase; 0.01% surfactant final): worked | PCR product of the expected size (Taq DNA Polymerase; 0.1% surfactant final): worked | Function (Taq DNA Polymerase): YES
